Among the data in patent US11174252B2, “Heterocyclic compounds as kinase inhibitors” (priority 2018, dated 2021) are IC50 values, retold here.

One experiment deals with CDK9 (cyclin K) (Homo sapiens (Human), UniProt P50750). Nature of the experiment: LanthaScreen Eu Kinase Binding Assay. To be noted: read-out: CDK9/K IC50. Background: TR-FRET usually uses a lanthanide donor and a delayed reading to cut background.
The target in the next experiment is CDK5 (p25) (Homo sapiens (Human), UniProt Q00535). Nature of the experiment: Z'-LYTE kinase assay. It counts as biochemical. The text has this:
The following equations were used for Z'-LYTETM Screening Assay Data Analysis.

Another experiment deals with MCF-7. Put plainly: Cancer cell proliferation assay, single agent. It counts as cell-based. To be noted: Homo sapiens.
A further experiment has as its target CDK1 (cyclin B) (Homo sapiens (Human), UniProt P06493). Nature of the experiment: Z'-LYTE kinase assay. It counts as biochemical. The text has this: The following equations were used for Z′-LYTE™ Screening Assay Data Analysis.
The test system of another experiment is DU4475. Put plainly: Cancer cell proliferation assay, single agent. It counts as cell-based. To be noted: Homo sapiens.
A further experiment addresses PI3Kδ kinase (Homo sapiens (Human), UniProt O00329). Put plainly: PI3Kδ kinase ADP-Glo assay (Reaction Biology Corporation). To be noted: read-out: PI3Kδ IC50. Background: In ADP-Glo the light output rises with the ADP produced.
The target in a further experiment is CDK7 (cyclin H) (Homo sapiens (Human), UniProt P50613). Nature of the experiment: Adapta Assay. It counts as biochemical. An excerpt:
The following equations were used for Adapta™ Assay Data Analysis.

The target in a further experiment is FMS kinase (Homo sapiens (Human), UniProt P07333). Put plainly: LanthaScreen kinase assay (ATP, fluorescent-PolyGT substrate, TR-FRET). It counts as biochemical.
In another experiment the target is CDK2 (cyclin A) (Homo sapiens (Human), UniProt P24941). Put plainly: Z'-LYTE kinase assay. It counts as biochemical. As to the method:
IC50 values of compounds against CDK2 (cyclin A) were determined by Z'-LYTETM. […] The following equations were used for Z'-LYTETM Screening Assay Data Analysis.

The next experiment has as its system BT-549. Nature of the experiment: Cancer cell proliferation assay, single agent. It counts as cell-based. The following applies: Homo sapiens; BT-549 cells; treated for 24-168 hours; read-out: IC50 (nM) BT-549.
The next experiment concerns A549. Put plainly: Cancer cell proliferation assay, single agent. To be noted: Homo sapiens; A549 cells; treated for 24-168 hours; read-out: IC50 (nM) A549. It counts as cell-based.
In a further experiment the target is CDK4 (Homo sapiens (Human), UniProt P11802). Nature of the experiment: In vitro kinase inhibition, luminescence (ADP-Glo) with retinoblastoma substrate. It counts as biochemical.
For another experiment, the target named is CDK6 (Homo sapiens (Human), UniProt Q00534). Put plainly: biochemical. It counts as biochemical.
Setting [1] is: MCF7, MCF-7 cells, treated for 24-168 hours, read-out: IC50 (nM) MCF-7.
Where [2] appears, read: DU-4475, DU4475 cells, treated for 24-168 hours, read-out: IC50 (nM) DU4475.
Setting [3] is: DU-4475, read-out: IC50 (nM) DU4475.

Each structure is given as a SMILES string. Read-outs that look alike come from different tables or passages of the source.

Chain of CDK9 (cyclin K) (P50750 whole entry): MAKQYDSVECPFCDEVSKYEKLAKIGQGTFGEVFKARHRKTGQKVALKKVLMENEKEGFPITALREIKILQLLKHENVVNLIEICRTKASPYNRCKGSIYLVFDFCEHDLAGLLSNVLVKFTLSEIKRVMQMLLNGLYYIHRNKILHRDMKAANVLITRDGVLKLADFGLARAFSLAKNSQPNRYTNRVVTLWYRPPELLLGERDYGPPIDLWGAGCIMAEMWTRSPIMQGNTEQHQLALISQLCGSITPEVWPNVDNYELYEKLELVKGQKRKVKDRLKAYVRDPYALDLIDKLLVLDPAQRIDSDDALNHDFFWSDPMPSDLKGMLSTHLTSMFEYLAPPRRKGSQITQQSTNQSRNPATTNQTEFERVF
Chain of CDK9 (cyclin K) (O75909 whole entry partner): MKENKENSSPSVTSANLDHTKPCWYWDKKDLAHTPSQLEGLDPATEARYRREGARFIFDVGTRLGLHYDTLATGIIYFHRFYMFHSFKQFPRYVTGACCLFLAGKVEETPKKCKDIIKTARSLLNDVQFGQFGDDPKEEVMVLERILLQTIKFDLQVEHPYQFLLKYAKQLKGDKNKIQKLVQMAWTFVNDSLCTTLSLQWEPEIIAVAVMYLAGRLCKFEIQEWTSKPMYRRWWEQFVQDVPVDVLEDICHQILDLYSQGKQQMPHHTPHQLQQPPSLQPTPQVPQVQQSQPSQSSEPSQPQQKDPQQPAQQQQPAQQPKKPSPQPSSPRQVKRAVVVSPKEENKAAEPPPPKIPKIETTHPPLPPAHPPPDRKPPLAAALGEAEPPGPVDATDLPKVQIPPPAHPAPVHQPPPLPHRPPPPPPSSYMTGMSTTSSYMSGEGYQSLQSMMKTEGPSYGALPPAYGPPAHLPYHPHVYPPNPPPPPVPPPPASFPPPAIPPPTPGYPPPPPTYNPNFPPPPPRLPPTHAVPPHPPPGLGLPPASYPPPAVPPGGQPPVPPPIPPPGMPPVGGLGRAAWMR
Chain of PI3Kδ kinase (O00329 whole entry): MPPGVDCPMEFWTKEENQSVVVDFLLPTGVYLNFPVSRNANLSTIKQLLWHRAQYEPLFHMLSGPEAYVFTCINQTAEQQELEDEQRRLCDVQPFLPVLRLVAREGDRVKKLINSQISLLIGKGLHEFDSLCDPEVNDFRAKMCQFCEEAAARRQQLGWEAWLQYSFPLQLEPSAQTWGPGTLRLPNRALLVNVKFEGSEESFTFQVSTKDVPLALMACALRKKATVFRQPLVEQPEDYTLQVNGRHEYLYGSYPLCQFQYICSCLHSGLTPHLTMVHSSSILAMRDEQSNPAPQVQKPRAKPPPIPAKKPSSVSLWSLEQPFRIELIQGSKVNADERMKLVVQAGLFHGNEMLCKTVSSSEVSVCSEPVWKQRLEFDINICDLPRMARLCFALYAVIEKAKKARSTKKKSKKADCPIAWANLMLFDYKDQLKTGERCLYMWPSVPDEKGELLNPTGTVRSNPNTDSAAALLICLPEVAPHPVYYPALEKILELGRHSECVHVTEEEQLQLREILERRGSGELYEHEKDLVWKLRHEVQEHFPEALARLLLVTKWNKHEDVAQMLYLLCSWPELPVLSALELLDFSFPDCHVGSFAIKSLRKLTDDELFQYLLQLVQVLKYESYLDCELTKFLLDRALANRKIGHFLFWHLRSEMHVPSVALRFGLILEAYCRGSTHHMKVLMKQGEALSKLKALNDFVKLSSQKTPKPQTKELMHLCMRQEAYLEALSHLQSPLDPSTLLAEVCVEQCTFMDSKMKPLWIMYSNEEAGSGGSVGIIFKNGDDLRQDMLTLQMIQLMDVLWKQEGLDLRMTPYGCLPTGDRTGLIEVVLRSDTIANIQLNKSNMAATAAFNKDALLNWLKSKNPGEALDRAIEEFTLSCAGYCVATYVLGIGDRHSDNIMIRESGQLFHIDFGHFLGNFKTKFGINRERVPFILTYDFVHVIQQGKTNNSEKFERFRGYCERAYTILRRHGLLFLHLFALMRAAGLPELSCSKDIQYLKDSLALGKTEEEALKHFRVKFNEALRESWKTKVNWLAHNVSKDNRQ
Chain of PI3Kδ kinase (P27986 whole entry partner): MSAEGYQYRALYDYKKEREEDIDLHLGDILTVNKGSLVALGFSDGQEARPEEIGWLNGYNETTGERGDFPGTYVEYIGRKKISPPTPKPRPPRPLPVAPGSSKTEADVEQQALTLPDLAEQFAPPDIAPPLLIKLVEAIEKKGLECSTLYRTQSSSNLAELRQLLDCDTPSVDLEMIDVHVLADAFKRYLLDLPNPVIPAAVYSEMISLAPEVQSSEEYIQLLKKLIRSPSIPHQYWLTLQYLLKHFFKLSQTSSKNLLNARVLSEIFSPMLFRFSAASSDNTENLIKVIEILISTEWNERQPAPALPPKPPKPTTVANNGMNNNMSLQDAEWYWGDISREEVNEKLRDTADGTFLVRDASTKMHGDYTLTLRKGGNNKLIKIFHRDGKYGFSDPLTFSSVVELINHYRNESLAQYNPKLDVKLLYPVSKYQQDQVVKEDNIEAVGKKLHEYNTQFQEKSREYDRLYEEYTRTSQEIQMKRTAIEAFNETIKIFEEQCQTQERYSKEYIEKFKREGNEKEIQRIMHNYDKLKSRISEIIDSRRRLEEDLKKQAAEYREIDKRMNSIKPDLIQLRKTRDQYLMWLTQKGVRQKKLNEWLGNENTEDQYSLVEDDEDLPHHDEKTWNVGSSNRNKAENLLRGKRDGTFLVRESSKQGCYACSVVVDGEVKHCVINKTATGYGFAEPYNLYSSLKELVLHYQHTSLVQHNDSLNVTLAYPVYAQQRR
Chain of CDK5 (p25) (Q00535 whole entry): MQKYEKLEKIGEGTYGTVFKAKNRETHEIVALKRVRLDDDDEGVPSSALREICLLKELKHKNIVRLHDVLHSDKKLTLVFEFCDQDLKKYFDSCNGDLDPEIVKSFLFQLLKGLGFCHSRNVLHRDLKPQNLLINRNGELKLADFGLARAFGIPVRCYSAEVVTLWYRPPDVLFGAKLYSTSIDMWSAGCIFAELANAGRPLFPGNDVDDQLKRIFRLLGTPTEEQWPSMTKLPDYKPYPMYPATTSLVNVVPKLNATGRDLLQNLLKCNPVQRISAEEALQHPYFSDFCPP
Chain of CDK5 (p25) (Q15078 99-307 partner): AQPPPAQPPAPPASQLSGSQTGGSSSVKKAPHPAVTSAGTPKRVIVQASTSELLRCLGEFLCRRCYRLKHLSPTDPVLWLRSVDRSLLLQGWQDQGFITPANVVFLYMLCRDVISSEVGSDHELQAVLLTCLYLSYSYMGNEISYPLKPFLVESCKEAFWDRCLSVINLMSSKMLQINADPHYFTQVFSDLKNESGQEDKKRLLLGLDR
Chain of CDK4 (P11802 whole entry): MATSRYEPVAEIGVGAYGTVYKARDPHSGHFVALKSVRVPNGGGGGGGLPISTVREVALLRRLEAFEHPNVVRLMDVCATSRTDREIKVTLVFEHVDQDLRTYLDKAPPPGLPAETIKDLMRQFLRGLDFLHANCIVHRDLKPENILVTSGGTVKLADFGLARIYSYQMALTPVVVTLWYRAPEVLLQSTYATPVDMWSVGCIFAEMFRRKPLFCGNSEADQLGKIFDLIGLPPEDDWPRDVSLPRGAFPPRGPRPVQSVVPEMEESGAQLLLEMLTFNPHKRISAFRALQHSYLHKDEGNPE
Chain of CDK4 (P24385 whole entry partner): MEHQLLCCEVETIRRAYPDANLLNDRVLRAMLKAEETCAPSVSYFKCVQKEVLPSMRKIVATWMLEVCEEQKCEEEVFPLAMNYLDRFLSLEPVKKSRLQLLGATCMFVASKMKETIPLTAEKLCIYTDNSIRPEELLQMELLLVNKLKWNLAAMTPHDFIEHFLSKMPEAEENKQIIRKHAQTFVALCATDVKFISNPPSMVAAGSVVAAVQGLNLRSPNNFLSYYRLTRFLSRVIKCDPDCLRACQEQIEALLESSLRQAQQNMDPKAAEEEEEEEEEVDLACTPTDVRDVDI
Chain of CDK1 (cyclin B) (P06493 whole entry): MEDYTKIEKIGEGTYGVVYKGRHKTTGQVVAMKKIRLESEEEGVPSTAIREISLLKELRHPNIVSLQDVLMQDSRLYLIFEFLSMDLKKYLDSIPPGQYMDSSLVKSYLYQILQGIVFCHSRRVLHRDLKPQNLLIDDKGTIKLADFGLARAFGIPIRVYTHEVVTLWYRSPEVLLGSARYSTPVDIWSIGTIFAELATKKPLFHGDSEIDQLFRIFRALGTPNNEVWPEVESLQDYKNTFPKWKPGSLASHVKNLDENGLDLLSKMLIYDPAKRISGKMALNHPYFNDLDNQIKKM
Chain of CDK1 (cyclin B) (P14635 whole entry partner): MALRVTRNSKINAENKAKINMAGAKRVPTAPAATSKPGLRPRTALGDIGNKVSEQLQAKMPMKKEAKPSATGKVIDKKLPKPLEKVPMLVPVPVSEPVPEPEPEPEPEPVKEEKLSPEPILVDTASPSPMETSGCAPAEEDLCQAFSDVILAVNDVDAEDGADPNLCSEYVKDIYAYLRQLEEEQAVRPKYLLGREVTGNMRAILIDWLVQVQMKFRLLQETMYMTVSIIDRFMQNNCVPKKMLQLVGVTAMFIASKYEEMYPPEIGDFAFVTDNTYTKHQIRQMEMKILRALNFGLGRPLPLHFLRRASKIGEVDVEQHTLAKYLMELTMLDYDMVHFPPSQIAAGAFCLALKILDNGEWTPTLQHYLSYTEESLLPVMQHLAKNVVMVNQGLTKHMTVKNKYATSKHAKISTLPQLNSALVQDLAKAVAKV

For `CC(C)N1CCOc2c(F)cc(-c3nc(Nc4ccc(N5CCC(N(C)C)CC5)c(F)c4)ncc3F)cc21` [Compound 25, N-(4-(4-(dimethylamino)piperidin-1-yl)-3-fluorophenyl)-5-fluoro-4-(8-fluoro-4-isopropyl-3,4-dihydro-2H-benzo[b][1,4]oxazin-6-yl)pyrimidin-2-amine], the IC50 amounted to 5 nM at CDK9 (cyclin K); 3.6 nM against CDK5 (p25); 25 nM in the experiment with MCF-7 (setting [1]); 6.7 nM on CDK1 (cyclin B); 46 nM with DU4475 (setting [2]); 6100 nM on PI3Kδ kinase. The IC50 was 145 nM at CDK7 (cyclin H), 5 nM at FMS kinase, 3.4 nM against CDK2 (cyclin A) and below 1110 nM in the experiment on BT-549.

Turning to `CC(C)N1CCOc2c(F)cc(-c3nc(Nc4ccc(C5CCN(C)CC5)cn4)ncc3F)cc21` [Compound 442, 5-fluoro-4-(8-fluoro-4-isopropyl-3,4-dihydro-2H-benzo[b][1,4]oxazin-6-yl)-N-(5-(1-methylpiperidin-4-yl)pyridin-2-yl)pyrimidin-2-amine], the IC50 on CDK9 (cyclin K) was 41 nM; at CDK5 (p25) it was 27 nM; in the experiment on MCF-7 (setting [1]) it was 125 nM; at CDK1 (cyclin B), 73 nM; with DU4475 (setting [2]), 503 nM; on PI3Kδ kinase, above 50000 nM. Further, the IC50 against CDK7 (cyclin H) came to 1160 nM; on FMS kinase, 353 nM; with A549, 465 nM; at CDK2 (cyclin A), 7 nM; against CDK4, 2 nM; against CDK6, 1 nM.

As for `CC(C)N1CCOc2c(F)cc(-c3nc(Nc4ccc(C5CCN(C)CC5)nc4)ncc3F)cc21` [Compound 33, 5-fluoro-4-(8-fluoro-4-isopropyl-3,4-dihydro-2H-benzo[b][1,4]oxazin-6-yl)-N-(6-(1-methylpiperidin-4-yl)pyridin-3-yl)pyrimidin-2-amine], the IC50 at CDK9 (cyclin K) is 2 nM; against CDK5 (p25), 1 nM; in the experiment with MCF-7 (setting [1]), below 14 nM; against CDK1 (cyclin B), 3 nM; with DU4475 (setting [3]), 40 nM; against CDK7 (cyclin H), 54 nM. Also, the IC50 turned out to be 48 nM against FMS kinase, 2 nM against CDK2 (cyclin A), 1.5 nM on CDK4 and 1.5 nM against CDK6.

As to `CC(C)N1CCOc2c(F)cc(-c3nc(Nc4ccc(N5CCC(N(C)C)CC5)cn4)ncc3F)cc21` [Compound 436, N-(5-(4-(dimethylamino)piperidin-1-yl)pyridin-2-yl)-5-fluoro-4-(8-fluoro-4-isopropyl-3,4-dihydro-2H-benzo[b][1,4]oxazin-6-yl)pyrimidin-2-amine], the IC50 at CDK9 (cyclin K) amounted to 73 nM; at CDK5 (p25) it was 38 nM; in the experiment on MCF-7 (setting [1]), 165 nM; at CDK1 (cyclin B), 82 nM; with DU4475 (setting [2]), 383 nM; against CDK7 (cyclin H) it was 2360 nM. Besides, the IC50 on FMS kinase is above 5000 nM; with A549, 390 nM; against CDK2 (cyclin A) it was 8 nM.

As for `CC(C)N1CCOc2c(F)cc(-c3nc(Nc4ccn(C5CCNCC5)c(=O)c4)ncc3F)cc21` [Compound 437, 4-((5-fluoro-4-(8-fluoro-4-isopropyl-3,4-dihydro-2H-benzo[b][1,4]oxazin-6-yl)pyrimidin-2-yl)amino)-1-(piperidin-4-yl)pyridin-2(1H)-one], the IC50 at CDK5 (p25) was determined as 7.7 nM; in the experiment with MCF-7 (setting [1]), 45 nM; on CDK1 (cyclin B), 9 nM; at CDK7 (cyclin H), 85 nM; against FMS kinase, 3 nM; at CDK2 (cyclin A), 3 nM.

In the case of `CC(C)N1CCOc2c(F)cc(-c3nc(Nc4ccc(N5CCOCC5)cn4)ncc3F)cc21` [Compound 446, 5-fluoro-4-(8-fluoro-4-isopropyl-3,4-dihydro-2H-benzo[b][1,4]oxazin-6-yl)-N-(5-morpholinopyridin-2-yl)pyrimidin-2-amine], the IC50 at CDK9 (cyclin K) was 280 nM; in the experiment on MCF-7 (setting [1]), 850 nM; against CDK1 (cyclin B) it was 679 nM; with DU4475 (setting [2]), 385 nM; at PI3Kδ kinase, 21800 nM; on CDK7 (cyclin H), above 10000 nM. In addition, the IC50 stood at 1120 nM against FMS kinase, 68 nM on CDK2 (cyclin A), 3.9 nM at CDK4 and 8.8 nM against CDK6.

In the case of `Fc1cnc(Nc2ccc3c(n2)CCNC3)nc1-c1cc(F)c2c(c1)N(C1CCC1)CCO2` [Compound 482, N-(4-(4-cyclobutyl-8-fluoro-3,4-dihydro-2H-benzo[b][1,4]oxazin-6-yl)-5-fluoropyrimidin-2-yl)-5,6,7,8-tetrahydro-1,6-naphthyridin-2-amine], the IC50 in the experiment on MCF-7 (MCF7, read-out: IC50 (nM) MCF-7) was 230 nM; against CDK1 (cyclin B), 155 nM; in the experiment with DU4475 (setting [3]), 540 nM; on PI3Kδ kinase, above 50000 nM; against FMS kinase it was 1750 nM; against CDK2 (cyclin A), 29 nM. The IC50 turned out to be 3 nM against CDK4 and 16 nM against CDK6.

With `CC(C)N1CCOc2c(F)cc(-c3nc(Nc4ccc(N5CCC(O)CC5)cn4)ncc3F)cc21` [Compound 447, 1-(6-((5-fluoro-4-(8-fluoro-4-isopropyl-3,4-dihydro-2H-benzo[b][1,4]oxazin-6-yl)pyrimidin-2-yl)amino)pyridin-3-yl)piperidin-4-ol], the IC50 was 243 nM on CDK9 (cyclin K); 300 nM in the experiment with MCF-7 (setting [1]); 238 nM on CDK1 (cyclin B); 230 nM in the experiment on DU4475 (setting [2]); above 50000 nM at PI3Kδ kinase; above 10000 nM against CDK7 (cyclin H). For the same compound, the IC50 was 1680 nM against FMS kinase, 36 nM against CDK2 (cyclin A), 1.1 nM against CDK4 and 1.6 nM at CDK6.

Regarding `CC(C)N1CCOc2c(F)cc(-c3nc(Nc4ccc(N5CCC(N(C)C)CC5)nc4)ncc3F)cc21` [Compound 38, N-(6-(4-(dimethylamino)piperidin-1-yl)pyridin-3-yl)-5-fluoro-4-(8-fluoro-4-isopropyl-3,4-dihydro-2H-benzo[b][1,4]oxazin-6-yl)pyrimidin-2-amine], the IC50 with MCF-7 (setting [1]) amounted to 20 nM; on CDK1 (cyclin B), 3 nM; in the experiment with DU4475 (setting [2]), 45 nM; at CDK7 (cyclin H) it was 163 nM; against FMS kinase it was 40 nM.
